In patent US9920092B1, “Composition having anti-oxidant, anti-aging, and autophagy activities and uses thereof” (Incospharm Corporation, priority 2017, dated 2018):

Assays:
[1] = tested on: human epidermal keratinocyte cells; assay: Intracellular ROS by DCFH-DA dye and FACS scanning after H2O2; format: cell-based; settings: 100 uM pre-treatment for 48 hours, 10 uM H2O2 10 minutes, FIG. 4
Method: In order to measure an intercellular anti-oxidant activity of the compound represented by Structural Formula 1 according to the present invention, an amount of intracellular reactive oxygen species (ROS) was measured using 6-carboxy-2′,7′-dichlorofluorescein diacetate (DCFH-DA) dye and fluorescence activated cell sorter (FACS) scanning.
As a specific experimental method, human epidermal keratinocyte cells (Gibco BRL) were uniformly seeded onto a 600 culture dish (3×10^5 cells/dish) and cultured in an epilife medium (Gibco BRL) containing human keratinocyte growth supplement (HKGS, Gibco BRL) at 37° C. in a 5% CO2 incubator for 24 hours. Thereafter, the test materials (H2O2, vitamin C, and the compound represented by Structural Formula 1) were each dissolved in water at a concentration of 10 mM to prepare a concentrate, the prepared concentrate was diluted so as to have a concentration of 100 uM using the medium and put into a culture dish to treat the cells. Then, culturing was performed for 48 hours, and after the culturing was terminated, the medium was removed and the resultant was washed, thereby preparing a subsequent experiment. Next, 10 uM hydrogen peroxide was added thereto, the culturing was performed for 10 minutes, the resultant was washed again. […]

[2] = tested on: human epidermal keratinocyte cells; assay: LC3 puncta assay (confocal microscope); format: cell-based; settings: 100 uM, 48 hours, anti-LC3 immunostaining; FIG. 7
Method: As a specific experimental method, after 200 ul of poly-L-lysine (sigma) was put into each well of a 15 ul slide glass (Ibidi) and a reaction was carried out at room temperature for 30 minutes, followed by coating, human epidermal keratinocyte cells (Gibco BRL) were cultured and treated with respective test materials (rapamycin, compound represented by Structural Formula 1, and vitamin C) at a concentration of 100 uM. After the culturing for 48 hours was terminated, a medium was removed, and the cultured cells were fixed and blocked using formalin. Thereafter, the cells were labeled with anti-LC3 (Abfrontier) and anti-rabbit IgG-FITC (sigma), nucleus was stained with 4′,6′-diamidine-2′-phenylindole dihydrochloride (DAPI), and then, whether or not a puncta was formed in the cells was confirmed using a confocal microscope.

[3] = tested on: genes associated with anti-oxidation and autophagy; assay: cDNA microarray of genes associated with anti-oxidation and autophagy; format: cell-based
Method: (§1) In order to find a cause of increasing an intracellular anti-oxidant activity by treatment with the compound represented by Structural Formula 1, cDNA microarray was performed, thereby confirming that transcription of several kinds of important genes associated with anti-oxidation and autophagy was increased. Proteins for the selected genes were quantified by western blot.

[4] = tested on: human epidermal keratinocyte cells; assay: Cell protection effect against H2O2 oxidative stress (MTT); format: cell-based; settings: then 1 mM H2O2 4 hours
Method: Through the results in Examples 2 to 6, it was confirmed that expression of the anti-oxidant proteins and the autophagy-related proteins in cells was increased by the compound represented by Structural Formula 1, and thus, autophagy in the cells was activated. Therefore, in order to confirm whether or not activation of autophagy as described above may protect cells from cytotoxicity caused by ROS, follow-up research into a cell protection effect was conducted.
As a specific experiment method, after treating human epidermal keratinocyte cells (Gibco BRL) with respective test materials (vitamin C and the compound represented by Structural Formula 1) at 0.1 mM or 1 mM, respectively, while culturing the cells in a 96-well culture dish, the cells were cultured for 24 hours or 48 hours, the resultant was washed, and 1 mM H2O2 was added thereto, and additional culturing was performed for 4 hours. Thereafter, each of the wells was washed, 10 ul of 3-(4,5-dimethylthiazol-2-yl)-2,5-diphenyltetrazolium bromide (MTT) dissolved in PBS (5 mg/ml) was added to each of the wells, and a reaction was carried out at 37° C. under a 5% CO2 condition. Thereafter, a supernatant was carefully removed, MTT formazan precipitated in the cells was dissolved in 100 ul of DMSO, and then absorbance at OD570 was measured using an enzyme-linked immunosorbent assay (ELISA) reader.

[5] = tested on: human epidermal keratinocyte cells; assay: Western blot of anti-oxidant and autophagy-related protein expression; format: cell-based; settings: 50, 100, or 200 um, 48 hours
Method: as §1
As a specific experimental method, after treating human epidermal keratinocyte cells (Gibco BRL) with the compound represented by Structural Formula 1 at a concentration of 50, 100, or 200 um while culturing the cells in a 600 culture dish, culturing was performed for 48 hours. After the culturing was terminated, a medium was removed, a RIPA lysis buffer containing protease inhibitor cocktail (2 ug/ml aprotinin, 5 ug/ml leupeptin, 1 ug/ml pepstatin A, 1 mM PMSF, 5 mM EDTA and 1 mM EGTA) was added thereto, thereby obtaining an entire cell homogenate. Thereafter, total proteins were quantified through microBCA assay (SMART micro BCA protein assay kit, Intron biotechnology), the cell homogenate (10 to 20 ug) was loaded on a SDS-PAGE gel, and respective proteins were isolated by electrophoresis and moved to a nitrocellulose membrane. […]

[6] = tested on: human dermal fibroblast cells; assay: Electron microscopy assay of autophagy structures; format: cell-based; settings: 50 uM, 24 hours; FIGS. 8 and 9
Method: As a specific experimental method, after treating human dermal fibroblast cells with the compound represented by Structural Formula 1 at a concentration of 50 uM while culturing the cells, the culturing was performed for 24 hours. After the culturing was terminated, the cells were fixed, a paraffin block was prepared, and then, cell images were analyzed using an electron microscope.
An autophagy pathway starts from formation of an isolated precursor membrane having a cup shape, referred to as phagophore. The phagophore may form a double membrane […] known as autophagosome through initiation, nucleation, elongation, and closure processes. The autophagosome carries condensed proteins, organelles or pathogenic bacteria in damaged cells to lysosome in a captured state, and fused with lysosome to form autophagolysosome. The autophagolysosome decomposes the captured constituents in an acidic environment mediated by acid hydrolase.

[7] = ABTS radical scavenging assay (in-vitro anti-oxidant activity); format: biochemical; settings: absorbance at OD734 after 30 minutes; FIG. 3
Method: In order to measure in-vitro anti-oxidant activity of the compound represented by Structural Formula according to the present invention, ABTS radical scavenging assay was performed. When 2,2′-azino-bis-(3-ethylbenzothiazoline-6-sulfonic acid (ABTS) reacts with potassium persulfate, ABTS^+, which is an active cation, is formed, but in the case in which an anti-oxidant material is present in a test sample, ABTS^+ is removed by anti-oxidant activity, a greenish blue color, which is a peculiar color of ABTS^+, is decolorized, which may be measured as an absorbance value, thereby making it possible to evaluate the anti-oxidant activity.
As a specific experimental method, after mixing ABTS diammonium salt (7 mM) and potassium persulfate (2.45 mM) with each other in distilled water in order to activate stabilized ABTS diammonium salt, a reaction was carried out at room temperature for 16 hours, thereby forming an ABTS radical. After diluting the resultant in a phosphate buffer solution (PBS) to prepare a reaction solution so that an OD734 value was about 1.5, the reaction solution was mixed with vitamin C (Vit C), pyrrolidone carboxylic acid (PCA), or the compound represented by Structural Formula 1 disclosed in the present invention to induce a reaction. After 30 minutes, an amount of the remaining activated ABTS radical was analyzed by measuring absorbance at OD734.

Row | SMILES | amount of intracellular ROS formed by treatment with H2O2 [1] | formation of LC3 puncta in the cells [2] | transcription of genes associated with anti-oxidation and autophagy [3] | cell viability ([4]; 0.1 mM or 1 mM, pre-treatment for 24 hours, FIG. 10) | cell viability ([4]; 0.1 mM or 1 mM, pre-treatment for 48 hours, FIG. 11) | expression of proteins having high anti-oxidant activities (Prx2 monomer, Prx3, HSP70 based Grp75, HSP90B1, EPHX2, stanniocalcin2) ([5]; FIG. 5) | expression of proteins important in autophagy and detoxification activities (BiP, FoxO1, sirtuin5) ([5]; FIG. 6) | number of autophagolysosome [6] | number of autophagosome (increase by treatment) [6] [times] | number of phagophore [6] | scavenging activity on the activated ABTS radical [7] | cell viability ([4]; 1 mM, pre-treatment for 24 hours, FIG. 10) | cell viability ([4]; 1 mM, pre-treatment for 48 hours, FIG. 11) | viability at 100 µM ([4]; Homo sapiens, Keratinocyte, 0.1 mM, pre-treatment for 24 hours, FIG. 10) [%]
1 | O=C(O)CN(CCCC[C@H](NC(=O)[C@H](CCCCN(CC(=O)O)CC(=O)O)N(CC(=O)O)CC(=O)O)C(=O)O)CC(=O)O [2-[2,6-bis-(bis-carboxymethyl-amino)-hexanoyl-amino]-6-(bis-carboxymethyl-amino)-hexanoic acid] | almost disappeared | a large amount of a LC puncta | increased | improved | improved | increased | increased | significantly increased | ≥ 2 | significantly increased | concentration-dependent scavenging activity | – | – | –
2 | O=C1O[C@H]([C@@H](O)CO)C(O)=C1O [vitamin C, reference compound] | not decreased | not increased | – | – | – | – | – | – | – | – | concentration-dependent scavenging activity | rather deteriorated | rather deteriorated | ~95
